Data reported in article PMC8512560, “Design, Synthesis, and Antipoliferative Activities of Novel Substituted Imidazole-Thione Linked Benzotriazole Derivatives” (Molecules, 2021).
Values joined by “and” are separate entries in the source; they are usually repeats but may differ in a detail not shown here. Identical values can stand only once. Like-named read-outs stand apart in the source and are kept apart here.

How the values were obtained:
[1] = system: HUVEC human umbilical vein endothelial cell line; experiment: MTT viability assay, normal HUVEC cells; format: cell-based; conditions: 72 h, mean ± SD of three independent experiments
Experimental: (§1) All the human tumour cell lines MCF-7, HL-60, HCT-116, and HUVEC were cultured in Dulbecco’s Modified Eagle’s Medium (DMEM) with 10% fetal bovine serum, 2 mM L-glutamine and 100 µg/mL penicillin/streptomycin. Cells were maintained at 37 °C in 5% CO2 in a humidified incubator. All cells were sub-cultured three times/week by trypsinization using TrypLE Express (1X).
(§2) The Benzotriazole compounds were evaluated for antiproliferative effect using the MTT viability assay of various cancer cell lines (MCF-7, HCT-116 and HL-60) and the normal human umbilical vein endothelial cell line (HUVEC) to calculate the relative IC50 values for each compound. Cells were seeded in triplicate in 96-well plates at a density of 10 × 10^3 cells/mL in a total volume of 200 µL per well. 0.1% of DMSO was used as a vehicle control. After this time, they were treated with 2 µL test compound which had been pre-prepared as stock solutions in ethanol to furnish the concentration range of study, 10 nM to 100 µM, and re-incubated for a further 72 h. The culture medium was then removed, and the cells washed with 100 µL phosphate buffered saline (PBS) and 50 µL MTT added, to reach a final concentration of 1 mg/mL MTT added. Cells were incubated for 2 h in darkness at 37 °C. At this point solubilisation was begun through the addition of […] DMSO and the cells maintained at room temperature in darkness for 20 min to ensure thorough colour diffusion before reading the absorbance. Plates were incubated for 72 h at 37 °C + 5% CO2. The MTT (5 mg/mL in PBS) was added and incubated for another 4 h, and the optical density was detected with a microplate reader at 570 nm. Results were expressed as percentage viability relative to vehicle control (100%). Dose response curves were plotted and IC50 values (concentration of drug resulting in 50% reduction in cell survival) were obtained using the commercial software package Prism (GraphPad Software, Inc., La Jolla, CA, USA). All the experiments were repeated in at least three independent experiments.

[2] = system: HL-60 human leukemia cancer cell line; experiment: MTT viability assay, HL-60; format: cell-based; conditions: mean ± SD of three independent experiments, read-out: Antiproliferative Activities IC50, HL-60
Experimental: as §1, §2

[3] = system: MCF-7 human breast cancer cell line; experiment: MTT viability assay, MCF-7; format: cell-based; conditions: mean ± SD of three independent experiments, read-out: Antiproliferative Activities IC50, MCF-7
Experimental: as §1, §2

[4] = system: HCT-116 human colon cancer cell line; experiment: MTT viability assay, HCT-116; format: cell-based; conditions: mean ± SD of three independent experiments, read-out: Antiproliferative Activities IC50, HCT-116
Experimental: as §1, §2

[5] = system: MCF-7, HL-60 and HCT-116 cancer cell lines; experiment: MTT viability assay, values pooled over the cancer cell lines; format: cell-based, human; conditions: for IC50: Homo sapiens, MTT; for Fold more active than methyl-containing derivative BI2 (antiproliferative): relative to BI2, cell line not specified
Experimental: as §1, §2

[6] = system: bovine brain tubulin; experiment: Tubulin polymerization assay (turbidimetric, kit BK006); format: biochemical; conditions: read-out: Anti-Tubulin Activity IC50 ± SD (inhibition of tubulin polymerization)
Experimental: The assembly of purified bovine tubulin was monitored using a kit, BK006, purchased from Cytoskeleton Inc., (Denver, CO, USA). The assay was carried out in accordance with the manufacturer’s instructions using the standard assay conditions. Briefly, purified ([…]) in a buffer consisting of 80 mM PIPES (pH 6.9), 0.5 mM EGTA, 2 mM MgCl2, 1 mM GTP and 10% glycerol was incubated at 37 °C in the presence of either vehicle (2% (v/v) ddH2O), CA-4, benzotriazole compounds. Light was scattered proportionally to the concentration of polymerized microtubules in the assay. Therefore, the tubulin assembly was monitored turbidimetrically at 340 nm in a Spectramax 340 PC spectrophotometer (Molecular Devices, Sunnyvale, CA, USA). The concentration that inhibits tubulin polymerization by 50% (IC50) was determined using area under the curve (AUC). The AUC of the untreated controls were considered as 100% polymerization. The IC50 value for each compound was computed using GraphPad Prism Software.

[7] = system: colchicine binding site of tubulin; experiment: Colchicine site competitive binding assay ([3H]colchicine); conditions: tubulin and colchicine at 1 and 5 µM
Experimental: The affinity of Benzotriazole compounds to colchicine binding site was determined using a Colchicine Site Competitive Assay kit CytoDYNAMIX Screen15 (Cytoskeleton, Inc., Denver, CO, USA) using the standard protocol of the manufacturer to determine Ki values (μM). Biotin-labelled tubulin ([…]) and the test compounds (positive control colchicine, negative control vinblastine, G-1, fluorescent G-1, or 2-ME) in a 96-well plate (final volume: 100 μL). After incubating for 2 h at 37 °C with gentle shaking, streptavidin-labelled yttrium SPA beads (80 μg in 20 μL reaction buffer, PerkinElmer, Waltham, MA) were added to each well and incubated for 30 min at 4 °C. The plates were then read on a scintillation counter (Packard Instrument, Topcount Microplate Reader) and the percentage of inhibition was calculated.

[8] = MCF-7, HL-60 and HCT-116, read-out: IC50 values range over the three cancer cell lines
[9] = HL-60 and HCT-116 only, read-out: IC50 values range versus HL-60 and HCT-116 cells

SMILES	melting point [°C]	IC50 ([2]; Homo sapiens, HL-60, 72 h) [µM]	IC50 ([3]; Homo sapiens, MCF7, 72 h) [µM]	IC50 ([4]; Homo sapiens, HCT-116, 72 h) [µM]	IC50 [5, 8] [µM]	IC50 [6]	Colchicine Binding % ± SD (inhibition of [3H]colchicine binding), 1 µM Drug [7] [%]	Colchicine Binding % ± SD (inhibition of [3H]colchicine binding), 5 µM Drug [7] [%]	IC50 ([2]; 72 h) [µM]	IC50 ([3]; 72 h) [µM]	IC50 ([4]; 72 h) [µM]	IC50 [5, 9] [µM]	IC50 [1] [µM]	Fold more active than methyl-containing derivative BI2 (antiproliferative) [5] [fold]
Cc1ccc(-n2cc(-n3nnc4ccccc43)[nH]c2=S)cc1 [BI2, 4-(1H-Benzo[d][1,2,3]Triazol-1-yl)-1-(4-Methylphenyl)-1H-Imidazole-2(3H)-Thione]	178 to 180	37.1 ± 2.54	12.5 ± 0.36	14.8 ± 0.95	> 10	–	–	–	–	–	–	–	12.2 ± 0.58	–
CCc1ccc(-n2cc(-n3nnc4ccccc43)[nH]c2=S)cc1 [BI3, 4-(1H-Benzo[d][1,2,3]Triazol-1-yl)-1-(4-Ethylphenyl)-1H-Imidazole-2(3H)-Thione]	150 to 152	3.91 ± 0.27	10.6 ± 0.31	2.75 ± 0.18	–	0.928 ± 0.04 µM	65.38 ± 2	86.85 ± 2	–	–	–	–	> 100	3.8
COc1ccc(-n2cc(-n3nnc4ccccc43)[nH]c2=S)cc1 [BI4, 4-(1H-Benzo[d][1,2,3]Triazol-1-yl)-1-(4-Methoxyphenyl)-1H-Imidazole-2(3H)-Thione]	175 to 177	22.1 ± 1.52	2.29 ± 0.07	–	–	–	–	–	–	–	–	–	> 100	2.5
Oc1ccc(-n2cc(-n3nnc4ccccc43)[nH]c2=S)cc1 [BI5, 4-(1H-Benzo[d][1,2,3]Triazol-1-yl)-1-(4-Hydroxyphenyl)-1H-Imidazole-2(3H)-Thione]	267 to 269	1.1	4.4	2.1	1.51 to 15.5	0.49 µM and 0.497 µM	61.78 ± 2	81.34 ± 2	1.18 ± 0.08	4.45 ± 0.13	2.15 ± 0.14	–	4.74 ± 0.23	–
Fc1ccccc1N1CC(n2nnc3ccccc32)=NC1=S [BI10, 4-(1H-Benzo[d][1,2,3]Triazol-1-yl)-1-(2-Florophenyl)-1H-Imidazole-2(3H)-Thione]	196 to 198	–	–	–	–	–	–	–	–	–	–	–	–	–
S=c1[nH]c(-n2nnc3ccccc32)cn1-c1ccc(Br)cc1 [BI11, 4-(1H-Benzo[d][1,2,3]Triazol-1-yl)-1-(4-Bromophenyl)-1H-Imidazole-2(3H)-Thione]	267 to 269	11.5 ± 0.11	38.2 ± 1.09	17.4 ± 1.12	11.5 to 38.2	–	–	–	–	–	–	–	47.8 ± 2.29	–
NS(=O)(=O)c1ccc(-n2cc(-n3nnc4ccccc43)[nH]c2=S)cc1 [BI12, 4-(4-(1H-Benzo[d][1,2,3]Triazol-1-yl)-2-Thioxo-2,3-Dihydro-1H-Imidazol-1-yl)Benzenesulfonamide]	217 to 219	0.9 ± 0.06	6.1 ± 0.75	7.83 ± 0.5	–	0.784 ± 0.02 µM	64.67 ± 2	80.26 ± 2	–	–	–	–	25.1 ± 1.2	–

Second part, led by results:

melting point [°C]	IC50 ([2]; Homo sapiens, HL-60, 72 h) [µM]	IC50 ([3]; Homo sapiens, MCF7, 72 h) [µM]	IC50 ([4]; Homo sapiens, HCT-116, 72 h) [µM]	IC50 [5, 8] [µM]	IC50 [6]	Colchicine Binding % ± SD (inhibition of [3H]colchicine binding), 1 µM Drug [7] [%]	Colchicine Binding % ± SD (inhibition of [3H]colchicine binding), 5 µM Drug [7] [%]	IC50 ([2]; 72 h) [µM]	IC50 ([3]; 72 h) [µM]	IC50 ([4]; 72 h) [µM]	IC50 [5, 9] [µM]	SMILES	IC50 [1] [µM]	Fold more active than methyl-containing derivative BI2 (antiproliferative) [5] [fold]
175 to 177	5.23 ± 0.36	6.4 ± 0.18	17.5 ± 1.13	–	–	–	–	–	–	–	–	S=c1[nH]c(-n2nnc3ccccc32)cn1-c1ccccc1 [BI1, 4-(1H-Benzo[d][1,2,3]Triazol-1-yl)-1-Phenyl-1H-Imidazole-2(3H)-Thione]	63 ± 3.02	–
187 to 189	3.28 ± 0.22	7.29 ± 0.21	1.51 ± 0.12	1.51 to 7.29	0.928 ± 0.03 µM	63.23 ± 2	77.63 ± 2	–	–	–	1.51 to 7.38	S=c1[nH]c(-n2nnc3ccccc32)cn1-c1ccc(Cl)cc1 [BI6, 4-(1H-Benzo[d][1,2,3]Triazol-1-yl)-1-(4-Chlorophenyl)-1H-Imidazole-2(3H)-Thione]	27.4 ± 1.31	–
180 to 182	3.42 ± 0.23	15.5 ± 0.44	7.38 ± 0.48	–	0.84 ± 0.02 µM	61.18 ± 2	79.95 ± 2	–	–	–	1.51 to 7.38	S=c1[nH]c(-n2nnc3ccccc32)cn1-c1ccccc1Cl [BI7, 4-(1H-Benzo[d][1,2,3]Triazol-1-yl)-1-(2-Chlorophenyl)-1H-Imidazole-2(3H)-Thione]	17.3 ± 0.35	–
120 to 122	5.12 ± 0.35	2.66 ± 0.08	2.1 ± 0.14	1.51 to 15.5	3.05 µM	59.74± 2	82.13 ± 2	–	–	–	1.51 to 7.38	S=c1[nH]c(-n2nnc3ccccc32)cn1-c1cccc(Cl)c1 [BI8, 4-(1H-Benzo[d][1,2,3]Triazol-1-yl)-1-(3-Chlorophenyl)-1H-Imidazole-2(3H)-Thione]	39.8 ± 1.91	–
